Laboratory results reported in ChEMBL document CHEMBL1157926, “Synthesis and biological evaluation of combretastatin analogs as cell cycle inhibitors of the G1 to S transition in Saccharomyces cerevisiae” (2010).
Active and inactive are the calls of the source. No cut-off for these calls is given here.

Columns and labels:
Saccharomyces cerevisiae [1] = experiment: Cell cycle arrest in Saccharomyces cerevisiae BY4741 assessed as accumulation of cells at metaphase with post synthetic DNA content by FACS analysis; type: functional, organism-based
Saccharomyces cerevisiae [2] = experiment: Induction of log phase growth arrest in Saccharomyces cerevisiae BY4741; type: functional, organism-based
Saccharomyces cerevisiae [3] = experiment: Cell cycle arrest in Saccharomyces cerevisiae BY4741 assessed as accumulation of cells at metaphase with short spindles by FACS analysis; type: functional, organism-based
Saccharomyces cerevisiae [4] = experiment: Growth inhibition of Saccharomyces cerevisiae BY4741 at 300 uM up to 180 mins; type: functional, organism-based
Saccharomyces cerevisiae [5] = experiment: Growth inhibition of Saccharomyces cerevisiae BY4741 at 450 uM up to 180 mins; type: functional, organism-based
Saccharomyces cerevisiae [6] = experiment: Growth inhibition of Saccharomyces cerevisiae BY4741 at 150 uM up to 180 mins; type: functional, organism-based
Saccharomyces cerevisiae [7] = experiment: Induction of G1 phase arrest in Saccharomyces cerevisiae expressing TAP-tagged Sic1 assessed as down-regulation of Sic1 level at 450 uM after 3 hrs by Western blot analysis; type: functional, organism-based
Saccharomyces cerevisiae [8] = experiment: Induction of G1 phase arrest in Saccharomyces cerevisiae expressing TAP-tagged Cln2 assessed as down-regulation of Cln2 level at 450 uM after 3 hrs by Western blot analysis; type: functional, organism-based
Saccharomyces cerevisiae [9] = experiment: Induction of G1 phase arrest in Saccharomyces cerevisiae expressing TAP-tagged Clb5 assessed as down-regulation of Clb5 level at 450 uM after 3 hrs by Western blot analysis; type: functional, organism-based
Saccharomyces cerevisiae [10] = experiment: Induction of G1 phase arrest in Saccharomyces cerevisiae expressing TAP-tagged Cln1 assessed as down-regulation of Cln1 level at 450 uM after 3 hrs by Western blot analysis; type: functional, organism-based
Saccharomyces cerevisiae [11] = experiment: Induction of snf1 phosphorylation at T210 in Saccharomyces cerevisiae expressing Snf1-9myc at 450 uM after 3 hrs by Western blot analysis; type: functional, organism-based
Saccharomyces cerevisiae [12] = experiment: Induction of G1 phase arrest in alpha factor treated Saccharomyces cerevisiae expressing TAP-tagged Clb5 assessed as inhibition of Clb5 expression at 450 uM after 3 hrs by FACS analysis; type: functional, organism-based
Saccharomyces cerevisiae [13] = experiment: Cell cycle arrest in Saccharomyces cerevisiae BY4741 assessed as accumulation of cells at G1 phase at 450 uM after 3 hrs by FACS analysis; type: functional
Saccharomyces cerevisiae [14] = experiment: Reduction of budding index in Saccharomyces cerevisiae BY4741 at 450 uM relative to control; type: functional; design: scale not given: the % may be the effect or the level left

Structure (SMILES) | growth inhibition (GI) (Saccharomyces cerevisiae [4]) | growth inhibition (GI) (Saccharomyces cerevisiae [5]) | growth inhibition (GI) (Saccharomyces cerevisiae [6]) | also measured
COc1ccc(/C=C\c2cc(OC)c(OC)c(OC)c2)c(O)c1O | – | – | – | Activity (Saccharomyces cerevisiae [1]): Active; Activity (Saccharomyces cerevisiae [2]): Dose-dependent effect; Activity (Saccharomyces cerevisiae [3]): Active
COc1ccc(/C=C/c2cc(OC)c(OC)c(OC)c2)cc1O | inactive | inactive | inactive | –
COc1ccc(/C=C\c2cc(OC)c(OC)c(OC)c2)cc1N | inactive | inactive | inactive | –
COc1ccc(/C=C/c2cc(OC)c(OC)c(OC)c2)cc1[N+](=O)[O-] | inactive | inactive | inactive | –
COc1ccc(/C=C/c2cc(OC)c(OC)c(OC)c2)cc1B(O)O | inactive | inactive | inactive | –
COc1ccc(/C=C\c2cc(OC)c(OC)c(OC)c2)cc1O [COMBRETASTATIN A4] | – | – | – | Activity (Saccharomyces cerevisiae [7]): inactive; Activity (Saccharomyces cerevisiae [8]): inactive; Activity (Saccharomyces cerevisiae [9]): Active; Activity (Saccharomyces cerevisiae [10]): inactive; Activity (Saccharomyces cerevisiae [11]): Active; Activity (Saccharomyces cerevisiae [2]): Dose-dependent effect; Activity (Saccharomyces cerevisiae [12]): Active; Activity (Saccharomyces cerevisiae [13]): 50%; Activity (Saccharomyces cerevisiae [14]): 42%
COc1ccc(/C=C/c2cc(OC)c(OC)c(OC)c2)cc1F | inactive | inactive | inactive | –
COc1ccc(/C=C/c2cc(OC)c(OC)c(OC)c2)cc1N | inactive | inactive | inactive | –
COc1ccc(/C=C\c2cc(OC)c(OC)c(OC)c2)cc1B(O)O | – | – | – | Activity (Saccharomyces cerevisiae [7]): inactive; Activity (Saccharomyces cerevisiae [8]): inactive; Activity (Saccharomyces cerevisiae [9]): Active; Activity (Saccharomyces cerevisiae [10]): inactive; Activity (Saccharomyces cerevisiae [11]): Active; Activity (Saccharomyces cerevisiae [2]): Dose-dependent effect; Activity (Saccharomyces cerevisiae [12]): Active; Activity (Saccharomyces cerevisiae [13]): 50%; Activity (Saccharomyces cerevisiae [14]): 42%
COc1ccc(/C=C\c2cc(OC)c(OC)c(OC)c2)cc1[N+](=O)[O-] | inactive | inactive | inactive | –
COc1ccc(/C=C/c2cc(OC)c(OC)c(OC)c2)c(O)c1O | inactive | inactive | inactive | –
COc1ccc(/C=C\c2cc(OC)c(OC)c(OC)c2)cc1F | inactive | inactive | inactive | –
